# Source: patent publication US4970210A, “Triazinone lipoxygenase compounds” (Abbott Laboratories, priority 1988, dated 1990)
# Biological target: T1, 5-lipoxygenase (Rattus norvegicus, UniProt P12527)
# T1 construct: 20,000×g supernatant from homogenized RBL-1 cells; endogenous in cells; host or cells: RBL-1 cells (20,000×g supernatant of homogenate)
# T1 sequence (P12527 1-673): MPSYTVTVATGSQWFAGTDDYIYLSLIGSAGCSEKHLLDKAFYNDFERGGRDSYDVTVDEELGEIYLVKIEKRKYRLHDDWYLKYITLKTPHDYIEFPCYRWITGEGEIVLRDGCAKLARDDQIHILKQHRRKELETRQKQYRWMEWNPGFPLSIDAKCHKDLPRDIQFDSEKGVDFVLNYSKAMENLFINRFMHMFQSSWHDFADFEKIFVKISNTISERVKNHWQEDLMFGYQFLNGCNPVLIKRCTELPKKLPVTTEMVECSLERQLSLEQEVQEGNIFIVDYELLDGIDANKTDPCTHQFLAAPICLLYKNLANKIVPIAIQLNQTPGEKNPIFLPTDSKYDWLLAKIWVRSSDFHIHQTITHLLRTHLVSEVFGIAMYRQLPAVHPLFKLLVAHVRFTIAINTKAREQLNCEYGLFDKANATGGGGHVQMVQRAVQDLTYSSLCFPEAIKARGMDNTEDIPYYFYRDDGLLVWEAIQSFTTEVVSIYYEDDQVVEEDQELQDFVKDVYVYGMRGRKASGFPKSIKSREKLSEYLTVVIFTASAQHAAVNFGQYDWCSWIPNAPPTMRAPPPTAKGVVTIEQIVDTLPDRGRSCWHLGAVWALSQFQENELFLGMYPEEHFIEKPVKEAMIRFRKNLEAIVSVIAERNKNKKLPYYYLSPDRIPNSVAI
# Experiment: Inhibition of 5-lipoxygenase (20,000×g supernatant from homogenized RBL-1 cells)
# Assay type: biochemical
# Settings: in vitro, read-out: IC50 (concentration of compound producing 50% enzyme inhibition)
# Protocol: Inhibition of 5-lipoxygenase activity was determined using the 20,000×g supernatant from homogenized RBL-1 cells in a similiar manner as that described by Dyer and coworkers (Dyer, R. D.; Haviv., F.; Hanel, A. M.; Bornemeier, D. A.; Carter, G. W. Fed. Proc.,Fed.Am.Soc. Exp. Biol. 1984, 43,1462a). IC50 values (concentration of compound producing 50% enzyme inhibition) were calculated by linear regression analysis of percentage inhibition versus log inhibitor concentration plots.
row,Structure (SMILES),IC50
1,"CC1CN(c2cccc(Cl)c2)NC(=O)N1 (racemic) [Example 85, D,L-5-methyl-1-(3-chlorophenyl)-2H,4H-tetrahydro-1,2,4-triazin-3-one]",3 µM
2,"CCC1CN(c2ccccc2)NC(=O)N1 (racemic) [Example 86, D,L-5-ethyl-1-phenyl-2H,4H-tetrahydro-1,2,4-triazin-3-one]",7 µM
3,"O=C1CCCN(c2ccc(Oc3ccccc3)cc2)N1 [Example 6, 1-(4'-phenoxyphenyl)-2H-tetrahydropyridazin-3-one]",2 µM
4,"O=C1CCCN(c2cccc(C(F)(F)F)c2)N1 [Example 8, 1-(3'-trifluoromethylphenyl)-2H-tetrahydropyridazin-3-one]",5 µM
5,"CCOC(=O)c1cccc(N2CCCC(=O)N2)c1 [Example 16, 1-(3'-ethoxycarbonylphenyl)-2H-tetrahydropyridazin-3-one]",5 µM
6,"CCCCC1CC(=O)NN(c2ccccc2)C1 (stereo not drawn) [Example 40, 1-phenyl-5-butyl-2H-tetrahydropyridazin-3-one]",0.5 µM
7,"O=C1CCCN(c2cccc(Cl)c2)N1 [Example 46, 1-(3'-chlorophenyl)-2H-tetrahydropyridazin-3-one]",2.5 µM
8,"O=C1NCCN(c2ccccc2)N1 [Example 68, 1-(phenyl)-2 H,4 H-tetrahydro-1,2,4-triazin-3-one]",21 µM
9,"O=C1NCCN(c2cccc(Br)c2)N1 [Example 73, 1-(3'-bromophenyl)-2 H,4 H-tetrahydro-1,2,4-triazin-3-one]",5 µM
10,"CCc1cccc(N2CCNC(=O)N2)c1 [Example 74, 1-(3'-ethylphenyl)-2 H,4 H-tetrahydro-1,2,4-triazin-3-one]",13 µM
11,"CSc1cccc(N2CCNC(=O)N2)c1 [Example 75, 1-(3'-methylthiophenyl)-2 H,4 H-tetrahydro-1,2,4-triazin-3-one]",14 µM
12,"O=C1NCCN(c2cccc(F)c2)N1 [Example 88, 1-(3-fluorophenyl)-2H,4H-tetrahydro-1,2,4-triazin-3-one]",19 µM
13,"O=C1NCCN(c2ccccn2)N1 [Example 90, 1-(2-pyridyl)-2H,4H-tetrahydro-1,2,4-triazin-3-one]",26 µM
14,"O=C1NN(c2ccccc2)CCN1Cc1ccccc1 [Example 99, 4-Benzyl-1-phenyl-2H,4H-tetrahydro-1,2,4-triazin-3-one]",8 µM
15,"Cc1cccc(N2CCCC(=S)N2)c1 [Example 106, 1-(3'-methylphenyl)-2H-tetrahydro-pyridazin-3-thione]",1 µM
16,"CC(C)C(=O)N1CCN(c2ccccc2)NC1=O [Example 109, 4-Isobutyryl-1-phenyl-2H,4H-tetrahydro-1,2,4-triazin-3-one]",1 µM

# Results, then the molecule that gave them:
row,IC50,Structure (SMILES)
1,7 µM,"CC(C)C1CN(c2ccccc2)NC(=O)N1 (racemic) [Example 82, D,L-5-i-propyl-1-phenyl-2H,4H-tetrahydro-1,2,4-triazin-3-one]"
2,2 µM,"CCCCC1CN(c2ccccc2)NC(=O)N1 (racemic) [Example 83, D,L-5-n-butyl-1-phenyl-2H 4H-tetrahydro-1,2,4-triazin-3-one]"
3,11 µM,"N#Cc1cccc(N2CCCC(=O)N2)c1 [Example 1, 1-(3'-cyanophenyl)-2H-tetrahydropyridazin-3-one]"
4,6 µM,"COc1cccc(N2CCCC(=O)N2)c1 [Example 3, 1-(3'-methoxyphenyl)-2H-tetrahydropyridazin-3-one]"
5,3 µM,"CCc1cccc(N2CCCC(=O)N2)c1 [Example 10, 1-(3'-ethylphenyl)-2H-tetrahydropyridazin-3-one]"
6,6 µM,"CCCCCCCCc1ccc(N2CCCC(=O)N2)cc1 [Example 15, 1-(4'-octylphenyl)-2H-tetrahydropyridazin-3-one]"
7,3 µM,"Cc1cc(C)cc(N2CCCC(=O)N2)c1 [Example 24, 1-(3',5'-dimethylphenyl)-2H-tetrahydropyridazin-3-one]"
8,1 µM,"O=C1CCCN(c2cc(Cl)cc(Cl)c2)N1 [Example 26, 1-(3',5'-dichlorophenyl)-2H-tetrahydropyridazin-3-one]"
9,0.6 µM,"CCCCC1CCN(c2ccccc2)NC1=O (stereo not drawn) [Example 38, 1-phenyl-4-butyl-2H-tetrahydropyridazin-3-one]"
10,10 µM,"O=C1CCCN(c2ccccc2F)N1 [Example 51, 1-(2'-fluorophenyl)-2H-tetrahydropyridazin-3-one]"
11,15 µM,"Cc1cccc(N2CCNC(=O)N2)c1 [Example 70, 1-(3'-methylphenyl)-2 H,4 H-tetrahydro-1,2,4-triazin-3-one]"
12,17 µM,"O=C1NCCN(c2cccc(C(F)(F)F)c2)N1 [Example 76, 1-(3'-trifluoromethylphenyl)-2 H,4 H-tetrahydro-1,2,4-triazin-3-one]"
13,6 µM,"O=C1NCCN(c2cccc(Cl)c2)N1 [Example 78, 1-(3'-chlorophenyl)-2 H,4 H, tetrahydro-1,2,4-triazin-3-one]"
14,1 µM,"O=C1NCCN(c2cccc(OCc3ccccc3)c2)N1 [Example 79, 1-(3'-benzyloxyphenyl)-2 H,4 H-tetrahydro-1,2,4-triazin-3-one]"
15,12 µM,"Cc1cc(C)cc(N2CCNC(=O)N2)c1 [Example 80, 1-(3',5'-dimethylphenyl)-2 H,4 H-tetrahydro-1,2,4-triazin-3-one]"
16,7 µM,"CC1(C)CN(c2ccccc2)NC(=O)N1 [Example 87, 5,5-dimethyl-1-phenyl-2H,4H-tetrahydro-1,2,4-triazin-3-one]"
17,17 µM,"S=C1NCCN(c2ccccc2)N1 [Example 102, 1-Phenyl-2H,4H-tetrahydro-1,2,4-triazin-3-thione]"
18,5 µM,"S=C1NCCN(c2cccc(Cl)c2)N1 [Example 103, 1-(3-Chlorophenyl)-2H,4H-tetrahydro-1,2,4-triazin-3-thione]"
19,3 µM,"CC(=O)N1CCN(c2ccccc2)NC1=O [Example 107, 4-Acetyl-1-phenyl-2H,4H-tetrahydro-1,2,4-triazin-3-one]"
20,1 µM,"CC(=O)N1CCN(c2cccc(Cl)c2)NC1=O [Example 111, 4-Acetyl-1-(3-chlorophenyl)-2H,4H-tetrahydro-1,2,4-triazin-3-one]"
21,71 µM,"O=C1CCCN(c2ccccc2)N1COCc1ccccc1 [Example 113, 1-phenyl-2-benzyloxymethyl-2 H-tetrahydropyridazin-3-one]"

# Test system: leukotriene biosynthesis
# Experiment: In vivo inhibition of leukotriene biosynthesis after oral administration, rat peritoneal anaphylaxis model
# Settings: 0.25 h, 200 micro mol/kg oral dose, one hour prior to antigen challenge, peritoneal fluid 15 minutes after challenge, vs mean of control group
# Protocol: Inhibition of the biosynthesis of leukotrienes in vivo after oral administration of compound was determined using a rat peritoneal anaphylaxis model in a similiar manner as that described by Young and coworkers (Young, P. R.; Dyer, R. D.; Carter, G. W. Fed. Proc., Fed. Am Soc.Exp. Biol. 1985, 44 1185). In this model rats were injected intraperitoneally (ip) with rabbit antibody to bovine serum albumin (BSA) and three hours later injected ip with BSA to induce an antigen-antibody response. Rats were sacrificed 15 minutes after this challenge and the peritoneal fluids were collected and analyzed for leukotriene levels. Test compounds were administered by gauge one hour prior to the antigen challenge. Percent inhibition values were determined by comparing the treatment group to the mean of the control group.
row,Structure (SMILES),inhibition in vivo at 200 µmol/kg
1,"CC1CN(c2ccccc2)NC(=O)N1 (racemic) [Example 81, D,L-5-methyl-1-phenyl-2H,4H-tetrahydro-1,2,4-triazin-3-one]",84%
2,"O=C1NCCN(c2ccccc2)N1 [Example 68, 1-(phenyl)-2 H,4 H-tetrahydro-1,2,4-triazin-3-one]",85%
3,"Cc1cccc(N2CCNC(=O)N2)c1 [Example 70, 1-(3'-methylphenyl)-2 H,4 H-tetrahydro-1,2,4-triazin-3-one]",66%
4,"O=C1NCCN(c2cccc(Br)c2)N1 [Example 73, 1-(3'-bromophenyl)-2 H,4 H-tetrahydro-1,2,4-triazin-3-one]",46%
5,"CCc1cccc(N2CCNC(=O)N2)c1 [Example 74, 1-(3'-ethylphenyl)-2 H,4 H-tetrahydro-1,2,4-triazin-3-one]",58%
6,"CSc1cccc(N2CCNC(=O)N2)c1 [Example 75, 1-(3'-methylthiophenyl)-2 H,4 H-tetrahydro-1,2,4-triazin-3-one]",73%
7,"O=C1NCCN(c2cccc(Cl)c2)N1 [Example 78, 1-(3'-chlorophenyl)-2 H,4 H, tetrahydro-1,2,4-triazin-3-one]",80%
8,"CC(=O)N1CCN(c2cccc(Cl)c2)NC1=O [Example 111, 4-Acetyl-1-(3-chlorophenyl)-2H,4H-tetrahydro-1,2,4-triazin-3-one]",74%
